Measured values from patent publication US20230102554A1 (GB002, INC., priority 2019, published 2023).

Legend:
[1] = biological target: T1, Human PDGFRβ, cytoplasmic domain (GST-PDGFRβ) (Homo sapiens, UniProt P09619); experiment: Human PDGFRβ biochemical inhibition assay (off-chip Mobility Shift Assay)
T1 construct: made in house
Outline: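 GST-tagged cytoplasmic domain (aa 557-1106) from baculovirus was incubated 1 h at room temperature with compound, CSKtide, ATP at Km and Mg²⁺ in HEPES buffer, pH 7.5. Phosphorylated and unphosphorylated peptide were separated by off-chip mobility shift, and the product ratio P/(P+S) gave percent inhibition.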

[2] = biological target: T2, Human PDGFRα, cytoplasmic domain (GST-PDGFRα) (Homo sapiens, UniProt P16234); experiment: Human PDGFRα biochemical inhibition assay (off-chip Mobility Shift Assay)
T2 construct: made in house
T2 sequence (P16234 550-1089 T674I): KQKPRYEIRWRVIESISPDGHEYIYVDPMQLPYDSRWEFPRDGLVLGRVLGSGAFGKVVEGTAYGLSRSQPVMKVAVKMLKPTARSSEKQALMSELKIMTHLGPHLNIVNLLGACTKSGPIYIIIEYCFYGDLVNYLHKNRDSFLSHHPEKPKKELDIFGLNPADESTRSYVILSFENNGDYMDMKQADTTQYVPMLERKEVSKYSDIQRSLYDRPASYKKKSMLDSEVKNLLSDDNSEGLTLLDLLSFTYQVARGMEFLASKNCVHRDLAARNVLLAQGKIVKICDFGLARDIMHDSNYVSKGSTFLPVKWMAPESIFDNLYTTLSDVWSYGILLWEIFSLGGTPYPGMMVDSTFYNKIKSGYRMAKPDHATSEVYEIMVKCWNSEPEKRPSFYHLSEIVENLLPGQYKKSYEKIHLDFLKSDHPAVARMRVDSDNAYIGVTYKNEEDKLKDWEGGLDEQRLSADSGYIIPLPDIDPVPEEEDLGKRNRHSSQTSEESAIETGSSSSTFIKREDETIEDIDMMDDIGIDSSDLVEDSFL

T1 sequence (P09619 with tags, fused parts or gaps): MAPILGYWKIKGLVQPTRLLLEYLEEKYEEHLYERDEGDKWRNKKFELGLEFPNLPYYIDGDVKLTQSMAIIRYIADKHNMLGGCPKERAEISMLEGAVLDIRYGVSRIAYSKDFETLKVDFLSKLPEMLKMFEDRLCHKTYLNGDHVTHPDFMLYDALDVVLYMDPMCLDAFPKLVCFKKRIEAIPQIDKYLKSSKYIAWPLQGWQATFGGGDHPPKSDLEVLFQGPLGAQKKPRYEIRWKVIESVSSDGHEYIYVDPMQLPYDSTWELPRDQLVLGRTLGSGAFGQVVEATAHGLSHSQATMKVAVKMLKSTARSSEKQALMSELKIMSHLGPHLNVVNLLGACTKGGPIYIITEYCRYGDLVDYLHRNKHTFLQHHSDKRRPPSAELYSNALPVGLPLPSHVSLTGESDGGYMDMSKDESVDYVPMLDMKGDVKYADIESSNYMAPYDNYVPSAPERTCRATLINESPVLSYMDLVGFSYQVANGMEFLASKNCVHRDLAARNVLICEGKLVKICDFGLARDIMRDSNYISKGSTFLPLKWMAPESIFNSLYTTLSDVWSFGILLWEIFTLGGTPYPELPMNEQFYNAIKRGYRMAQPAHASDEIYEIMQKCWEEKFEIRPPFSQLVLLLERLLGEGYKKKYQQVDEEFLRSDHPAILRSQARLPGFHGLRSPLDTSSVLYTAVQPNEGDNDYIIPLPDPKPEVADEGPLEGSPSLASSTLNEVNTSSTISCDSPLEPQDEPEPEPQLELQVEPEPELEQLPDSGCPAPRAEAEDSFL

SMILES	IC50 [1]	IC50 [2]
CCn1cc2ncc(N[C@@H](C)c3cccc(NC(=O)Cc4ccc(OC)cn4)c3)nc2n1 [Compound 697, (S)-N-(3-(1-((2-ethyl-2H-pyrazolo[3,4-b]pyrazin-6-yl)amino)ethyl)phenyl)-2-(5-methoxypyridin-2-yl)acetamide]	≥ 1000 nM	300 to 1000 nM
CCn1cc2ncc(N[C@@H](C)c3cc(NC(=O)Cc4ccc(OC)cn4)ccc3C)nc2n1 [Compound 698, (S)-N-(3-(1-((2-ethyl-2H-pyrazolo[3,4-b]pyrazin-6-yl)amino)ethyl)-4-methylphenyl)-2-(5-methoxypyridin-2-yl) acetamide]	300 to 1000 nM	< 300 nM
CCn1cc2ncc(N[C@@H](C)c3cccc(NC(=O)Cc4ccc(F)c(C)n4)c3)nc2n1 [Compound 699, (S)-N-(3-(1-((2-ethyl-2H-pyrazolo[3,4-b]pyrazin-6-yl)ainino)ethyl)phenvl)-2-(5-fluoro-6-methylpyridin-2-yl) acetamide]	300 to 1000 nM	< 300 nM
CCn1cc2ncc(N[C@@H](C)c3cc(NC(=O)Cc4ccccc4F)ccc3C)nc2n1 [Compound 700, (S)-N-(3-(1-((2-ethyl-2H-pyrazolo[3,4-b]pyrazin-6-yl)amino)ethyl)-4-methylphenyl)-2-(2-fluorophenyl)acetamide]	< 300 nM	< 300 nM
CCn1cc2ncc(N[C@@H](C)c3cc(NC(=O)Cc4ccc(F)cc4)ccc3C)nc2n1 [Compound 701, (S)-N-(3-(1-((2-ethyl-2H-pyrazolo[3,4-b]pyrazin-6-yl)amino)ethyl)-4-methylphenyl)-2-(4-fluorophenyl)acetamide]	< 300 nM	< 300 nM
CCn1cc2ncc(N[C@@H](C)c3cc(NC(=O)Cc4cc(F)ccc4F)ccc3C)nc2n1 [Compound 702, (S)-2-(2,5-difluorophenyl)-N-(3-(1-((2-ethyl-2H-pyrazolo[3,4-b]pyrazin-6-yl)amino)ethyl)-4-methylphenyl)acetamide]	< 300 nM	< 300 nM
CCn1cc2ncc(N[C@@H](C)c3cc(NC(=O)Cc4ccc(C(C)(C)O)cn4)ccc3F)nc2n1 [Compound 703, (S)-N-(3-(1-((2-ethyl-2H-pyrazolo[3,4-b]pyrazin-6-yl)amino)ethyl)-4-fluorophenyl)-2-(5-(2-hydroxypropan-2-yl)pyridin-2-yl)acetamide]	≥ 1000 nM	≥ 1000 nM
CCn1cc2ncc(N[C@@H](C)c3cc(NC(=O)Cc4ccc(C(C)(C)O)cn4)ccc3C)nc2n1 [Compound 705, (S)-N-(3-(1-((2-ethyl-2H-pyrazolo[3,4-b]pyrazin-6-yl)amino)ethyl)-4-methylphenyl)-2-(5-(2-hydroxypropan-2-yl)pyridin-2-yl)acetamide]	≥ 1000 nM	≥ 1000 nM
CCn1cc2ncc(N[C@@H](C)c3cc(NC(=O)Cc4cnc(C)c(F)c4)ccc3F)nc2n1 [Compound 706, (S)-N-(3-(1-((2-ethyl-2H-pyrazolo[3,4-b]pyrazin-6-yl)amino)ethyl)-4-fluorophenyl)-2-(5-fluoro-6-methylpyridin-3-yl) acetamide]	≥ 1000 nM	< 300 nM
CCn1cc2ncc(N[C@@H](C)c3cc(NC(=O)Cc4cnc(C)c(F)c4)ccc3C)nc2n1 [Compound 707, (S)-N-(3-(1-((2-ethyl-2H-pyrazolo[3,4-b]pyrazin-6-yl)amino)ethyl)-4-methylphenyl)-2-(5-fluoro-6-methylpyridin-3-yl)acetamide]	300 to 1000 nM	< 300 nM
CCn1cc2ncc(N[C@@H](C)c3cc(NC(=O)Cc4cnc(C5CC5)c(F)c4)ccc3C)nc2n1 [Compound 708, (S)-2-(6-cyclopropyl-5-fluoropyridin-3-yl)-N-(3-(1-((2-ethyl-2H-pyrazolo[3,4-b]pyrazin-6-yl)amino)ethyl)-4-methylphenyl)acetamide]	300 to 1000 nM	< 300 nM
CCn1cc2ncc(N[C@@H](C)c3cccc(NC(=O)Cc4ccc(C(C)C)cn4)c3)nc2n1 [Compound 709, (S)-N-(3-(1-((2-ethyl-2H-pyrazolo[3,4-b]pyrazin-6-yl)amino)ethyl)phenyl)-2-(5-isopropylpyridin-2-yl)acetamide]	≥ 1000 nM	300 to 1000 nM
CCn1cc2ncc(N[C@@H](C)c3cc(NC(=O)Cc4ccc(C(C)C)cn4)ccc3C)nc2n1 [Compound 710, (S)-N-(3-(1-((2-ethyl-2H-pyrazolo[3,4-b]pyrazin-6-yl)amino)ethyl)-4-methylphenyl)-2-(5-isopropylpyridin-2-yl) acetamide]	≥ 1000 nM	< 300 nM
CCn1cc2ncc(N[C@@H](C)c3cccc(NC(=O)Cc4ccc(C5CCC5)cn4)c3)nc2n1 [Compound 711, (S)-2-(5-cyclobutylpyridin-2-yl)-N-(3-(1-((2-ethyl-2H-pyrazolo[3,4-b]pyrazin-6-yl)amino)ethyl)phenyl)acetamide]	≥ 1000 nM	< 300 nM
CCc1ccc(CC(=O)Nc2cccc([C@H](C)Nc3cnc4cn(CC)nc4n3)c2)nc1 [Compound 712, (S)-N-(3-(1-((2-ethyl-2H-pyrazolo[3,4-b]pyrazin-6-yl)amino)ethyl)phenyl)-2-(5-ethylpyridin-2-yl)acetamide]	≥ 1000 nM	< 300 nM
CCc1ccc(CC(=O)Nc2ccc(C)c([C@H](C)Nc3cnc4cn(CC)nc4n3)c2)nc1 [Compound 713, (S)-N-(3-(1-((2-ethyl-2H-pyrazolo[3,4-b]pyrazin-6-yl)amino)ethyl)-4-methylphenyl)-2-(5-ethylpyridin-2-yl) acetamide]	300 to 1000 nM	< 300 nM
CCn1cc2ncc(N[C@@H](C)c3cccc(NC(=O)Cc4ccc(C)c(C)n4)c3)nc2n1 [Compound 716, (S)-2-(5,6-dimethylpyridin-2-yl)-N-(3-(1-((2-ethyl-2H-pyrazolo[3,4-b]pyrazin-6-yl)amino)ethyl)phenyl)acetamide]	≥ 1000 nM	< 300 nM
CCn1cc2ncc(N[C@@H](C)c3cc(NC(=O)Cc4ccc(C)c(C)n4)ccc3C)nc2n1 [Compound 717, (S)-2-(5,6-dimethylpyridin-2-yl)-N-(3-(1-((2-ethyl-2H-pyrazolo[3,4-b]pyrazin-6-yl)amino)ethyl)-4-methylphenyl) acetamide]	< 300 nM	< 300 nM
CCn1cc2ncc(N[C@@H](C)c3cccc(NC(=O)Cc4ccc5c(n4)CCC5)c3)nc2n1 [Compound 718, (S)-2-(6,7-dihydro-5H-cyclopenta[b]pyridin-2-yl)-N-(3-(1-((2-ethyl-2H-pyrazolo[3,4-b]pyrazin-6-yl)amino)ethyl)phenyl)acetamide]	≥ 1000 nM	< 300 nM
CCn1cc2ncc(N[C@@H](C)c3cc(NC(=O)Cc4ccc5c(n4)CCC5)ccc3C)nc2n1 [Compound 719, (S)-2-(6,7-dihydro-5H-cyclopenta[b]pyridin-2-yl)-N-(3-(1-((2-ethyl-2H-pyrazolo[3,4-b]pyrazin-6-yl)amino)ethyl)-4-methylphenyl)acetamide]	< 300 nM	< 300 nM
CCn1cc2ncc(N[C@@H](C)c3cccc(NC(=O)Cc4ccc5c(n4)OCCC5)c3)nc2n1 [Compound 720, (S)-2-(3,4-dihydro-2H-pyrano[2,3-b]pyridin-7-yl)-N-(3-(1-((2-ethyl-2H-pyrazolo[3,4-b]pyrazin-6-yl)amino)ethyl)phenyl)acetamide]	≥ 1000 nM	< 300 nM
CCn1cc2ncc(N[C@@H](C)c3cc(NC(=O)Cc4ccc5c(n4)OCCC5)ccc3C)nc2n1 [Compound 721, (S)-2-(3,4-dihydro-2H-pyrano[2,3-b]pyridin-7-yl)N-(3-(1-((2-ethyl-2H-pyrazolo[3,4-b]pyrazin-6-yl)amino)ethyl)-4-methylphenyl)acetamide]	≥ 1000 nM	< 300 nM
CCn1cc2ncc(N[C@@H](C)c3cc(NC(=O)Cc4cc(CN5CCN(C)CC5)c(C)cn4)ccc3C)nc2n1 [Compound 722, (S)-N-(3-(1-((2-ethyl-2H-pyrazolo[3,4-b]pyrazin-6-yl)amino)ethyl)-4-methylphenyl)-2-(5-methyl-4-((4-methylpiperazin-1-yl)methyl)pyridin-2-yl)acetamide]	≥ 1000 nM	< 300 nM
CCn1cc2ncc(N[C@@H](C)c3cccc(NC(=O)Cc4ccc5c(n4)CCCC5)c3)nc2n1 [Compound 723, (S)-N-(3-(1-((2-ethyl-2H-pyrazolo[3,4-b]pyrazin-6-yl)amino)ethyl)phenyl)-2-(5,6,7,8-tetrahydroquinolin-2-yl) acetamide]	≥ 1000 nM	< 300 nM
CCn1cc2ncc(N[C@@H](C)c3cc(NC(=O)Cc4ccc(C)cn4)c(F)cc3F)nc2n1 [Compound 724, (S)-N-(5-(1-((2-ethyl-2H-pyrazolo[3,4-b]pyrazin-6-yl)amino)ethyl)-2,4-difluorophenyl)-2-(5-methylpyridin-2-yl)acetamide]	≥ 1000 nM	< 300 nM
CCn1cc2ncc(N[C@@H](C)c3cc(NC(=O)Cc4ccc(F)c(CN5CCN(C)CC5)n4)ccc3C)nc2n1 [Compound 726, (S)-N-(3-(1-((2-ethyl-2H-pyrazolo[3,4-b]pyrazin-6-yl)amino)ethyl)-4-methylphenyl)-2-(5-fluoro-6-((4-methylpiperazin-1-yl)methyl)pyridin-2-yl)acetamide]	300 to 1000 nM	< 300 nM
CCn1cc2ncc(N[C@@H](C)c3cc(NC(=O)Cc4cc(CN5CCCC5)c(C)cn4)ccc3C)nc2n1 [Compound 727, (S)-N-(3-(1-((2-ethyl-2H-pyrazolo[3,4-b]pyrazin-6-yl)amino)ethyl)-4-methylphenyl)-2-(5-methyl-4-(pyrrolidin-1-ylmethyl)pyridin-2-yl)acetamide]	≥ 1000 nM	≥ 1000 nM
CCn1cc2ncc(N[C@@H](C)c3cc(NC(=O)Cc4ccc5c(n4)CCCC5)ccc3C)nc2n1 [Compound 728, (S)-N-(3-(1-((2-ethyl-2H-pyrazolo[3,4-b]pyrazin-6-yl)amino)ethyl)-4-methylphenyl)-2-(5,6,7,8-tetrahydroquinolin-2-yl)acetamide]	≥ 1000 nM	≥ 1000 nM
